Counter-ions that a name gives are not always drawn.

Our source for the z.score.t values is patent publication US20260053861A1, “CELL COMPOSITIONS AND METHODS OF USING THE SAME” (THE REGENTS OF THE UNIVERSITY OF CALIFORNIA, priority 2022, published 2026).

In the first assay the test system is hPSC-SCs.
Settings: not given
For the compound `Cl.O=c1[nH]oc2c1CCNC2` [THIP Hydrochloride], the z.score.t is given as 0.9162. On the same count and under the same terms, for `CCC(=O)O[C@H]1CC[C@H]2[C@@H]3CCC4=CC(=O)CC[C@]4(C)[C@H]3CC[C@]12C` [Testosterone propionate] the value was −1.014. Compound `CCCCNc1ccc(C(=O)OCCN(C)C)cc1.Cl` [TetracaÂ<ne hydrochloride] returned a z.score.t of −0.2276. Compound `Cn1c(=O)c2[nH]cnc2n(C)c1=O.O` [Theophylline monohydrate] registered a z.score.t of −1.123. Take `COc1c(O[C@@H]2O[C@H](CO)[C@@H](O)[C@H](O)[C@H]2O)cc2c(c1OC)-c1ccc(SC)c(=O)cc1[C@@H](NC(C)=O)CC2` [Thiocolchicoside]: the z.score.t is reported as 1.11. The same measure, in the same setting: for `C=C(NC(=O)C(=C)NC(=O)c1csc(C2=N[C@@H]3c4csc(n4)[C@H]4NC(=O)c5csc(n5)[C@H]([C@](C)(O)[C@@H](C)O)NC(=O)[C@H]5CSC(=N5)/C(=C/C)NC(=O)[C@H]([C@@H](C)O)NC(=O)c5csc(n5)[C@]3(CC2)NC(=O)[C@H](C)NC(=O)C(=C)NC(=O)[C@H](C)NC(=O)[C@H]([C@@H](C)CC)N[C@@H]2C=Cc3c([C@H](C)O)cc(nc3[C@H]2O)C(=O)O[C@@H]4C)n1)C(N)=O` [Thiostrepton] the value was 0.6013; for `N[C@@H](Cc1cc(I)c(Oc2cc(I)c(O)c(I)c2)c(I)c1)C(=O)O` [Thyroxine (L)], −0.8478. Regarding `CCNC1(c2cccs2)CCCCC1=O.Cl` (centres unmarked) [Tiletamine hydrochloride], the z.score.t was 1.958. Still for that read-out and setting: as for `C[C@H]1CC[C@]2(NC1)O[C@H]1C[C@H]3[C@@H]4CC[C@H]5C[C@@H](O)CC[C@]5(C)[C@H]4CC[C@]3(C)[C@H]1[C@@H]2C` [Tomatidine], the figure is −0.2904; as for `C[C@H]1CC[C@]2(NC1)O[C@H]1C[C@H]3[C@@H]4CC[C@H]5C[C@@H](O[C@@H]6O[C@H](CO)[C@H](O[C@@H]7O[C@H](CO)[C@@H](O)[C@H](O[C@@H]8OC[C@@H](O)[C@H](O)[C@H]8O)[C@H]7O[C@@H]7O[C@H](CO)[C@@H](O)[C@H](O)[C@H]7O)[C@H](O)[C@H]6O)CC[C@]5(C)[C@H]4CC[C@]3(C)[C@H]1[C@@H]2C` [Tomatine], −1.873.

The assay is the same for the next values; noted with them: HTS viability of hPSC-SCs in the presence of 30 mM glucose; Prestwick library; Table S4.
Turning to `Cc1nnc(NS(=O)(=O)c2ccc(N)cc2)s1` [Sulfamethizole], the z.score.t was determined as 1.132. The same measure, in the same setting: for `Cc1cc(NS(=O)(=O)c2ccc(N)cc2)no1` [Sulfamethoxazole] the value was 0.02534; for `COc1ccc(NS(=O)(=O)c2ccc(N)cc2)nn1` [Sulfamethoxypyridazine], 0.2139; for `COc1cc(NS(=O)(=O)c2ccc(N)cc2)ncn1` [Sulfamonomethoxine], 0.453. Still for that read-out and setting: as for `Nc1ccc(S(N)(=O)=O)cc1` [Sulfanilamide], the figure is −0.4325; as for `Nc1ccc(S(=O)(=O)Nc2ccnn2-c2ccccc2)cc1` [Sulfaphenazole], 0.4626.

As for `Nc1ccc(S(=O)(=O)Nc2ccccn2)cc1` [Sulfapyridine], the z.score.t is reported as 1.853. `Nc1ccc(S(=O)(=O)Nc2cnc3ccccc3n2)cc1` [Sulfaquinoxaline sodium salt]: the z.score.t worked out at 1.117. Still for that read-out and setting: as for `O=C(O)c1cc(/N=N/c2ccc(S(=O)(=O)Nc3ccccn3)cc2)ccc1O` [Sulfasalazine], the figure is 0.1344; as for `Nc1ccc(S(=O)(=O)Nc2nccs2)cc1` [Sulfathiazole], 0.9109. For the compound `O=C1C(CC[S+]([O-])c2ccccc2)C(=O)N(c2ccccc2)N1c1ccccc1` (centres unmarked) [Sulfinpyrazone], the z.score.t turned out to be 0.3922.

For the compound `Cc1noc(NS(=O)(=O)c2ccc(N)cc2)c1C` [Sulfisoxazole], the z.score.t was found to be 0.1556. In the case of `CC1=C(CC(=O)O)c2cc(F)ccc2/C1=C\c1ccc([S+](C)[O-])cc1` (centres unmarked) [Sulindac], the z.score.t is listed as −0.2425.

`COc1cc([S+](C)[O-])ccc1-c1nc2ncccc2[nH]1` (centres unmarked) [Sulmazole]: the z.score.t came out at 0.6376. As to `CCCCCCCCNC(C)C(O)c1ccc(SC(C)C)cc1` (centres unmarked) [Suloctidil], the z.score.t was −0.649. `CCN1CCCC1CNC(=O)c1cc(S(N)(=O)=O)ccc1OC` (centres unmarked) [Sulpiride]: the z.score.t is recorded as 0.1594. For `CC(C(=O)O)c1ccc(C(=O)c2cccs2)cc1` (centres unmarked) [Suprofen], the z.score.t was found to be 0.2361.

Regarding `CCCCC1(COC(=O)CCC(=O)O)C(=O)N(c2ccccc2)N(c2ccccc2)C1=O` [Suxibuzone], the z.score.t came out at 0.9352. Consider `CCOC(=O)Oc1c(OC)cc(C(=O)O[C@@H]2C[C@@H]3CN4CCc5c([nH]c6cc(OC)ccc56)[C@H]4C[C@@H]3[C@H](C(=O)OC)[C@H]2OC)cc1OC` [Syrosingopine], for which the z.score.t is given as −0.4543. On the same count and under the same terms, as for `Nc1c2c(nc3ccccc13)CCCC2` [Tacrine hydrochloride hydrate], the figure is −0.7049.

`CC1(C)S[C@@H]2[C@H](NC(=O)[C@H](N)c3ccccc3)C(=O)N2[C@H]1C(=O)OC1OC(=O)c2ccccc21` (some centres unmarked) [Talampicillin hydrochloride]: the z.score.t is recorded as −0.8111.

In the case of `CC/C(=C(\c1ccccc1)c1ccc(OCCN(C)C)cc1)c1ccccc1` [Tamoxifen citrate], the z.score.t is −1.827. For the compound `Cc1scc2c1N(C(=O)CN1CCN(C)CC1)c1ccccc1NC2=O` [Telenzepine dihydrochloride], the z.score.t amounted to 0.5452.

For the compound `CN1C(C(=O)Nc2ccccn2)=C(O)c2sccc2S1(=O)=O` [Tenoxicam], the z.score.t is 1.659.

Turning to `COc1cc2nc(N3CCN(C(=O)C4CCCO4)CC3)nc(N)c2cc1OC` (centres unmarked) [Terazosin hydrochloride], the z.score.t stood at 0.2582. Take `CC(C)N1CCN(c2ccc(OCC3COC(Cn4cncn4)(c4ccc(Cl)cc4Cl)O3)cc2)CC1` (centres unmarked) [Terconazole]: the z.score.t was −0.07901.

In the case of `CC(C)(C)c1ccc(C(O)CCCN2CCC(C(O)(c3ccccc3)c3ccccc3)CC2)cc1` (centres unmarked) [Terfenadine], the z.score.t is −0.8513. On the same count and under the same terms, for `CN(C)[C@@H]1C(O)=C(C(N)=O)C(=O)[C@@]2(O)C(O)=C3C(=O)c4c(O)cccc4[C@@](C)(O)[C@H]3C[C@@H]12` [Tetracycline hydrochloride] the value was −0.2425; for `O.O=C1C(O)=C(O)C(=O)C(O)=C1O` [Tetrahydroxy-1,4-quinone monohydrate], 1.323; for `c1ccc2c(c1)CCCC2C1=NCCN1` (centres unmarked) [Tetrahydrozoline hydrochloride], 0.81. On the same count and under the same terms, as for `c1ccc(C2CN3CCSC3=N2)cc1` (centres unmarked) [Tetramisole hydrochloride], the figure is −0.3319; as for `COc1ccc2cc1Oc1ccc(cc1)C[C@H]1c3cc(c(OC)cc3CCN1C)Oc1c(OC)c(OC)cc3c1[C@H](C2)N(C)CC3` [Tetrandrine], −0.4538. In the case of `O=C1CCC(N2C(=O)c3ccccc3C2=O)C(=O)N1` (centres unmarked) [Thalidomide], the z.score.t is reported as −1.821.

Take `Cn1cnc2c1c(=O)[nH]c(=O)n2C` [Theobromine]: the z.score.t is on record as −1.169.

With `Cc1ncc(C[n+]2csc(CCO)c2C)c(N)n1` [Thiamine hydrochloride], the z.score.t was −0.865. In the case of `CS(=O)(=O)c1ccc([C@@H](O)[C@@H](CO)NC(=O)C(Cl)Cl)cc1` [Thiamphenicol], the z.score.t worked out at 1.099. On the same count and under the same terms, for `S=C(NC1CCCCC1)N1CCC(c2cnc[nH]2)CC1` [Thioperamide maleate] the value was 0.8825. The same measure, in the same setting: for `CSc1ccc2c(c1)N(CCC1CCCCN1C)c1ccccc1S2` (centres unmarked) [Thioridazine hydrochloride] the value was −1.898; for `O=C(O)CNC(=O)C(CS)Cc1ccccc1` (centres unmarked) [Thiorphan], 0.563; for `CCCCCCCCCCCCCCCC[N+](C)(C)CCN(Cc1ccc(OC)cc1)c1ncccn1` [Thonzonium bromide], −1.884. As to `c1ccc2[nH]c(-c3cscn3)nc2c1` [Tiabendazole], the z.score.t was determined as 1.638.

`CCN(CC)CCNC(=O)c1cc(S(C)(=O)=O)ccc1OC` [Tiapride hydrochloride]: the z.score.t was 0.5452.

Consider `CC(C(=O)O)c1ccc(C(=O)c2ccccc2)s1` (centres unmarked) [Tiaprofenic acid], for which the z.score.t amounted to 0.04918. As to `CC1(C)S[C@@H]2[C@H](NC(=O)[C@H](C(=O)O)c3ccsc3)C(=O)N2[C@H]1C(=O)O` [Ticarcillin sodium], the z.score.t is given as −0.6389. Still for that read-out and setting: as for `Clc1ccccc1CN1CCc2sccc2C1` [Ticlopidine hydrochloride], the figure is 0.7034; as for `CCS(=O)(=O)CCn1c([N+](=O)[O-])cnc1C` [Tinidazole], 1.624; as for `NC[C@H]1O[C@H](O[C@H]2[C@H](O)[C@@H](O[C@H]3O[C@H](CO)[C@@H](O)[C@H](N)[C@H]3O)[C@H](N)C[C@@H]2N)[C@H](N)C[C@@H]1O` [Tobramycin], −0.3936. The same measure, in the same setting: for `Cc1cccc(C)c1NC(=O)C(C)N` (centres unmarked) [Tocainide hydrochloride] the value was 0.8938; for `Cc1c(C)c2c(c(C)c1O)CC[C@@](C)(CCC[C@H](C)CCC[C@H](C)CCCC(C)C)O2` [Tocopherol (R,S)], −0.7233; for `CCOC(=O)NNc1nncc2ccccc12` [Todralazine hydrochloride], −0.4444. The same measure, in the same setting: for `Cc1ccc(S(=O)(=O)NC(=O)NN2CCCCCC2)cc1` [Tolazamide] the value was 0.1767; for `c1ccc(CC2=NCCN2)cc1` [Tolazoline hydrochloride], 1.268; for `Cc1c(Cl)cccc1Nc1ccccc1C(=O)O` [Tolfenamic acid], −0.528. Take `Cc1ccc(C(=O)c2ccc(CC(=O)O)n2C)cc1` [Tolmetin sodium salt dihydrate]: the z.score.t is given as −0.05622. As to `Cc1cccc(N(C)C(=S)Oc2ccc3ccccc3c2)c1` [Tolnaftate], the z.score.t came out at 0.378. On the same count and under the same terms, as for `Cc1cccc(Nc2ccncc2S(=O)(=O)NC(=O)NC(C)C)c1` [Torsemide], the figure is 0.2395. Turning to `CCCCNc1c(C(=O)OCC)c(C)nc2c1cnn2CC` [Tracazolate hydrochloride], the z.score.t is on record as −0.9487. Take `NC[C@H]1CC[C@H](C(=O)O)CC1` [Tranexamic acid]: the z.score.t is given as 1.088.
